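The compound was tested at five concentrations on cells cultured in 96-well plates, with a 48-hour exposure period. Here, GI50 denotes the concentration required for 50% inhibition of growth.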 Active and inactive are the calls of the source. Rule as the data show it: active = GI50 up to about 1.1 µM and inactive = higher.
Tests used:
Test in all cases: NCI anticancer screen, dose series, 48 h
786-0 = system: 786-0
A498 = system: A498
A549 = system: A549
ACHN = system: ACHN
CAKI-1 = system: CAKI-1
CCRF-CEM = system: CCRF-CEM
COLO 205 = system: COLO 205
EKVX = system: EKVX
HCC 2998 = system: HCC 2998
HCT-116 = system: HCT-116
HCT-15 = system: HCT-15
HOP-62 = system: HOP-62
HOP-92 = system: HOP-92
HT-29 = system: HT-29
Hs-578T = system: Hs-578T
IGROV-1 = system: IGROV-1
K562 = system: K562
KM12 = system: KM12
LOX IMVI = system: LOX IMVI
M14 = system: M14
MCF7 = system: MCF7
MDA-MB-435 = system: MDA-MB-435
MDA-N = system: MDA-N
MOLT-4 = system: MOLT-4
NCI-H226 = system: NCI-H226
NCI-H23 = system: NCI-H23
NCI-H460 = system: NCI-H460
NCI-H522 = system: NCI-H522
NCI/ADR-RES = system: NCI/ADR-RES
OVCAR-3 = system: OVCAR-3
OVCAR-4 = system: OVCAR-4
OVCAR-5 = system: OVCAR-5
OVCAR-8 = system: OVCAR-8
PC-3 = system: PC-3
RPMI-8226 = system: RPMI-8226
SF-268 = system: SF-268
SF-295 = system: SF-295
SF-539 = system: SF-539
SK-MEL-28 = system: SK-MEL-28
SK-MEL-2 = system: SK-MEL-2
SK-MEL-5 = system: SK-MEL-5
SK-OV-3 = system: SK-OV-3
SN12C = system: SN12C
SNB-19 = system: SNB-19
SNB-75 = system: SNB-75
SR = system: SR
SW-620 = system: SW-620
T47D = system: T47D
TK-10 = system: TK-10
U-251 = system: U-251
UO-31 = system: UO-31
DU-145 = system: DU-145
HL-60 = system: HL-60
MDA-MB-231 = system: MDA-MB-231
Malme-3M = system: Malme-3M
RXF 393 = system: RXF 393
UACC-257 = system: UACC-257
UACC-62 = system: UACC-62

CNC(=O)C1(C#N)C(c2ccccc2)C(C#N)(C(=O)NC)C1c1ccccc1 (stereo unspecified) was tested, and the GI50 (786-0) was > 100 µM (inactive), the GI50 (A498) was > 100 µM (inactive) and the GI50 (A549) was > 100 µM (inactive). The GI50 (ACHN) was > 100 µM (inactive), the GI50 (CAKI-1) was > 100 µM (inactive) and the GI50 (CCRF-CEM) was > 100 µM (inactive). The GI50 (COLO 205) was > 100 µM (inactive), the GI50 (EKVX) was > 100 µM (inactive) and the GI50 (HCC 2998) was > 100 µM (inactive). The GI50 (HCT-116) was > 100 µM (inactive), the GI50 (HCT-15) was > 100 µM and the GI50 (HOP-62) was > 100 µM (inactive). For the same compound, the GI50 (HOP-92) was > 100 µM (inactive), the GI50 (HT-29) was > 100 µM (inactive) and the GI50 (Hs-578T) was > 100 µM (inactive). For the same compound, the GI50 (IGROV-1) was > 100 µM (inactive), the GI50 (K562) was 24.4 µM (inactive) and the GI50 (KM12) was > 100 µM (inactive). For the same compound, the GI50 (LOX IMVI) was > 100 µM (inactive), the GI50 (M14) was > 100 µM (inactive) and the GI50 (MCF7) was > 100 µM (inactive). The GI50 (MDA-MB-435) was > 100 µM (inactive), the GI50 (MDA-N) was > 100 µM (inactive) and the GI50 (MOLT-4) was > 100 µM (inactive). For the same compound, the GI50 (NCI-H226) was 98.9 µM (inactive), the GI50 (NCI-H23) was > 100 µM (inactive) and the GI50 (NCI-H460) was > 100 µM (inactive). For the same compound, the GI50 (NCI-H522) was > 100 µM (inactive), the GI50 (NCI/ADR-RES) was > 100 µM (inactive) and the GI50 (OVCAR-3) was > 100 µM (inactive). The GI50 (OVCAR-4) was > 100 µM (inactive), the GI50 (OVCAR-5) was > 100 µM (inactive) and the GI50 (OVCAR-8) was > 100 µM (inactive). For the same compound, the GI50 (PC-3) was > 100 µM (inactive), the GI50 (RPMI-8226) was 87.1 µM (inactive) and the GI50 (SF-268) was > 100 µM (inactive). The GI50 (SF-295) was > 100 µM (inactive), the GI50 (SF-539) was > 100 µM (inactive) and the GI50 (SK-MEL-28) was > 100 µM (inactive). The GI50 (SK-MEL-2) was > 100 µM (inactive), the GI50 (SK-MEL-5) was > 100 µM (inactive) and the GI50 (SK-OV-3) was > 100 µM (inactive). The GI50 (SN12C) was > 100 µM (inactive), the GI50 (SNB-19) was 27.4 µM (inactive) and the GI50 (SNB-75) was > 100 µM (inactive). For the same compound, the GI50 (SR) was > 100 µM (inactive), the GI50 (SW-620) was > 100 µM (inactive) and the GI50 (T47D) was > 100 µM (inactive). For the same compound, the GI50 (TK-10) was > 100 µM (inactive), the GI50 (U-251) was > 100 µM (inactive) and the GI50 (UO-31) was > 100 µM (inactive).

O=[N+]([O-])c1ccc2oc(=N/c3ccccc3)/c(=N\c3ccccc3)[nH]c2c1 was tested, and the GI50 (786-0) was 22.6 µM (inactive), the GI50 (A498) was 59.4 µM (inactive) and the GI50 (A549) was 59.8 µM (inactive). For the same compound, the GI50 (ACHN) was 24.7 µM (inactive), the GI50 (CAKI-1) was 61.1 µM (inactive) and the GI50 (CCRF-CEM) was > 100 µM (inactive). For the same compound, the GI50 (COLO 205) was > 100 µM (inactive), the GI50 (DU-145) was > 100 µM (inactive) and the GI50 (EKVX) was 70.5 µM (inactive). For the same compound, the GI50 (HCC 2998) was 83.6 µM (inactive), the GI50 (HCT-116) was 48.2 µM (inactive) and the GI50 (HCT-15) was > 100 µM. For the same compound, the GI50 (HL-60) was > 100 µM (inactive), the GI50 (HOP-62) was 35 µM (inactive) and the GI50 (HOP-92) was 28.2 µM (inactive). For the same compound, the GI50 (HT-29) was 87.3 µM (inactive), the GI50 (Hs-578T) was 19.7 µM (inactive) and the GI50 (IGROV-1) was 32.1 µM (inactive). The GI50 (K562) was > 100 µM (inactive), the GI50 (KM12) was 37.5 µM (inactive) and the GI50 (LOX IMVI) was 88.1 µM (inactive). The GI50 (MDA-MB-231) was 7.87 µM (inactive), the GI50 (MDA-MB-435) was > 100 µM (inactive) and the GI50 (MDA-N) was 54.5 µM (inactive). For the same compound, the GI50 (MOLT-4) was > 100 µM (inactive), the GI50 (Malme-3M) was 87.1 µM (inactive) and the GI50 (NCI-H226) was > 100 µM (inactive). For the same compound, the GI50 (NCI-H23) was 57.4 µM (inactive), the GI50 (NCI-H460) was 29.6 µM (inactive) and the GI50 (NCI-H522) was 6.97 µM (inactive). The GI50 (NCI/ADR-RES) was 51.1 µM (inactive), the GI50 (OVCAR-4) was 37.9 µM (inactive) and the GI50 (OVCAR-5) was > 100 µM (inactive). For the same compound, the GI50 (OVCAR-8) was 75.3 µM (inactive), the GI50 (PC-3) was 65.3 µM (inactive) and the GI50 (RPMI-8226) was > 100 µM (inactive). For the same compound, the GI50 (RXF 393) was 24.9 µM (inactive), the GI50 (SF-268) was 54.3 µM (inactive) and the GI50 (SF-295) was 47.9 µM (inactive). The GI50 (SF-539) was 39.7 µM (inactive), the GI50 (SK-MEL-28) was > 100 µM (inactive) and the GI50 (SK-MEL-2) was 36.7 µM (inactive). The GI50 (SK-MEL-5) was 75.9 µM (inactive), the GI50 (SK-OV-3) was 55.7 µM (inactive) and the GI50 (SN12C) was 46.5 µM (inactive). For the same compound, the GI50 (SNB-19) was 41 µM (inactive), the GI50 (SNB-75) was 18 µM (inactive) and the GI50 (SR) was > 100 µM (inactive). The GI50 (SW-620) was > 100 µM (inactive), the GI50 (T47D) was > 100 µM (inactive) and the GI50 (TK-10) was 26.8 µM (inactive). The GI50 (U-251) was 40.9 µM (inactive), the GI50 (UACC-257) was > 100 µM (inactive) and the GI50 (UACC-62) was 58.7 µM (inactive). For the same compound, the GI50 (UO-31) was 77.1 µM (inactive).

Source: ChEMBL document CHEMBL1201862, “PubChem BioAssay data set” (2004)
